Assay results published in US9381173B2, “Isolated stereoisomeric forms of (S)2-N(3-O-(propan 2-Ol)-1-propyl-4-hydroxybenzene)-3-phenylpropylamide” (Novaremed Ltd., priority 2011, dated 2016).

How the values were obtained:
Lyn A = Lyn A (Homo sapiens, UniProt P07948); assay: Lyn A mobility-shift kinase assay (Caliper LabChip 3000); format: biochemical; conditions: 5 concentrations, duplicate wells; listed as (S,R) enantiomer
Experimental: (§1) Each compound and concentration was tested in duplicate wells.
(§2) Data points are the averages of duplicate wells. Error bars represent the mean±replicate % activity.

Lyn B = Lyn B (Homo sapiens, UniProt P07948); assay: Lyn B mobility-shift kinase assay (Caliper LabChip 3000); format: biochemical; conditions: 5 concentrations, duplicate wells; listed as (S,R) enantiomer
Sequence of Lyn B (P07948 1-491 isoform P07948-2, species assumed): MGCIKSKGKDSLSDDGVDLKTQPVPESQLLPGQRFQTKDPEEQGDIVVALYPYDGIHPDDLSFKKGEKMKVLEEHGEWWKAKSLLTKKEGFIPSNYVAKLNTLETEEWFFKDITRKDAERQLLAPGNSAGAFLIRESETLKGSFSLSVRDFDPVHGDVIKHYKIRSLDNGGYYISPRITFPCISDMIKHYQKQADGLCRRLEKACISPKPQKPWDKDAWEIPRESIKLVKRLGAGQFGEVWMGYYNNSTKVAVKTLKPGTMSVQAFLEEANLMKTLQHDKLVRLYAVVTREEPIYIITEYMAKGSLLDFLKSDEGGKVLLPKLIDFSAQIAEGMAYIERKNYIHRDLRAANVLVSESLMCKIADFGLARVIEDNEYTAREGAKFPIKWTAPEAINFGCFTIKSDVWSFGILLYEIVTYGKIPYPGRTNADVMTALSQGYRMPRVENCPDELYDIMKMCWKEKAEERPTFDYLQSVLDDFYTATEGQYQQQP
Experimental: as §1, §2

[1] = system: tail flick model for nociceptive pain in mice; assay: Tail flick test for nociceptive pain; format: in vivo; conditions: for Mean latency time Post-treatment: 30 minutes after administration; for Mean latency time Pre-treatment: baseline a day before
Experimental: In the present study the analgesic effect of the substantially pure enantiomers E1 and E2 was evaluated using the tail flick model for nociceptive pain in mice.
The experiment was performed using male ICR strain 7 weeks old mice (25-27 g) (supplied by Harlan Israel, Ltd.)
Response to pain was assessed using the tail flick method which utilizes an Ugo Basile tail flick instrument. The animal is placed and held gently on the Ugo Basile tail flick (TF) instrument surface with the tail straight back and above a photoelectric cell that served as heat source. The heat source and timer are turned on by a foot pedal press, and automatically switch off when the animal flicks its tail off the emitter. Latency is measured and analyzed as an analgesic effect.
Description of the Study: The baseline tail flick was measured a day before the experiment started. On the day of the experiment, animal body weights were first measured followed by the IP administration of the test items (vehicle, morphine, NRD 13 S E1 and E2). 30 minutes after administration of the test items, the animals were subjected to the tail-flick testing. The tail-flick experiments were followed by blood sampling of all groups. The experiment was terminated after spinal cords and brains of all groups have been collected.
Statistics and Data Evaluation: All parameters are represented as means and standard error of the mean (SEM). Data was analyzed using a two tailed, unpaired T-test to compare each treatment group to the Vehicle treated animals. A two-tailed, paired T-test was used to compare the pre-treatment and post-treatment of each treatment group. Probability values p<0.01 and p<0.05 are considered significant.

BLK = BLK (Homo sapiens, UniProt P51451); assay: BLK mobility-shift kinase assay (Caliper LabChip 3000); format: biochemical; conditions: 5 concentrations, duplicate wells; listed as (S,R) enantiomer
Sequence of BLK (P51451 whole entry, species assumed): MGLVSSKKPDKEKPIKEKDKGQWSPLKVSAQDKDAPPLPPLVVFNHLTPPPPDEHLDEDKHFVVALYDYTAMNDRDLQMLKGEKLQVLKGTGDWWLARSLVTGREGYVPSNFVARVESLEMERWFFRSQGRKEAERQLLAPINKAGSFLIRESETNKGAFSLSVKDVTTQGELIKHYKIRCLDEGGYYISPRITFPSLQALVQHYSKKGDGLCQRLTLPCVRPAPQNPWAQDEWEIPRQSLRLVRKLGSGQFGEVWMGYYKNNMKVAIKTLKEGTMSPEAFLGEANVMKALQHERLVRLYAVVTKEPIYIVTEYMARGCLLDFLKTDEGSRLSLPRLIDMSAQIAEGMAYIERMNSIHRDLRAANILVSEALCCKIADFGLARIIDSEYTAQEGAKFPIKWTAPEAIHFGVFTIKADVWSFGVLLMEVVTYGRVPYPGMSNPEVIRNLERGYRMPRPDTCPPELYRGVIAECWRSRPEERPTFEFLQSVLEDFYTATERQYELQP
Experimental: as §1, §2

[2] = Body weight in the Chung model study; format: in vivo, rats
Experimental: Body Weights: Body weight was measured at regular intervals on study days −1 for baseline values and seven days after the surgery (study day 7).

[3] = system: spinal nerve ligation (SNL or Chung) model for neuropathic pain in rats; assay: Spinal nerve ligation (Chung) model, Von Frey test for mechanical allodynia; format: in vivo
Experimental: The antinociceptive and analgesic activity of E1 in a spinal nerve ligation (SNL or Chung) model for neuropathic pain in rats was evaluated.
On study day 0, all animals underwent Chung surgery, which consisted of an operation where the left L5-L6 spinal nerves were isolated and cut. Fourteen days post surgery the animals were selected using pain threshold results from the Von Frey test. Only animals that indicated signs of mechanical allodynia were included in the study. After the selection process, the animals were grouped and Test Items were administered via IP. The pain response was measured using Von Frey methodology at 2, 5 and 24 hours after Test Item administration on study day 14, and at 2, 5, 24 and 48 hours on study day 21 after 7 days of Test Item administration.
Species: 50 SD young adult male rats, 225-260 g at study initiation (Harlan Laboratories, Israel. Ltd.)
Neuropathic Pain Induction: While under anesthesia using ketamine/xylazine sodium and after the area was shaved, the rat was placed in a prone position and the left paraspinal muscles were separated from the spinous process at the L4-S2 levels. The L6 vertebral transverse process was carefully removed with a small rongeur to visually identify the L5-L6 spinal nerves. The left L5-L6 spinal nerves were cut. The muscle was then closed with 4-0 silk sutures and the skin was closed by a clamp. Following surgery, the rats were returned to the cage and remained under a heating lamp until they awoke.
Inclusion/Exclusion Criteria for Pre-Selection: On post-operative day 14, animals were tested for mechanical allodynia using Von Frey methodology prior to being placed in their experimental groups. Only animals with a pain threshold of ≦26 g for the operated leg were included in the study. In order to form homogenous treatment groups and to adhere to randomization, all the operated rats were grouped according to inclusion/exclusion criteria.
The Von Frey test was performed prior to Test Items' administrations (pre-TI injection) and at 2 and 5 hours after TI administration (post-TI injection) on study days 14 and 21.
Von Frey test was performed prior to TI's administration on study day 15 (24 hours post-TI's administration on study day 14) and on study days 22 and 23 (24 and 48 hours respectively post-TI's administration on study day 21).
Pain Response Evaluation: Pain response was evaluated using Von Frey test for mechanical allodynia.
The Von Frey test for mechanical allodynia is based on applying short pulses of pressure that are not painful to a naive animal. In fact, in order to achieve paw withdrawal from a naive animal, the pressure applied is sometimes higher than 60 g. This often requires the researcher to apply enough pressure with the Von Frey filament to actually lift the paw of the naive animal. However, in disease conditions, the animals are sensitive to much lower pressure and experience pain as a result of a normally non-painful stimulus.
Mechanical Allodynia Evaluation (Von Frey Testing): Allodynic response to tactile stimulation was assessed using the Von Frey apparatus (Touch®).
The rats were placed in an enclosure and positioned on a metal mesh surface, but allowed to move freely. The rats' cabins were covered with red cellophane to diminish environmental disturbances. The test began after cessation of exploratory behavior. The set of Von Frey monofilaments provide an approximate logarithmic scale of actual force and a linear scale of perceived intensity as provided by the manufacturer of the Von Frey apparatus (Ugo Basil). The operating principle: When the tip of a fiber of given length and diameter is pressed against the skin at right angles, the force of application increases as long as the researcher continues to advance the probe until the fiber bends. After the fiber bends, the probe continues to advance, causing the fiber to bend more, but without additional force being applied to the paw. […]

[4] = 150 mg/kg IP on days 14, 15, 21 (group 2)
[5] = 150 mg/kg IP (group 2), before first dose
[6] = 150 mg/kg IP, study day 14, 2 hours
[7] = 150 mg/kg IP, study day 21, 2 hours

Sequence of Lyn A (P07948 whole entry, species assumed): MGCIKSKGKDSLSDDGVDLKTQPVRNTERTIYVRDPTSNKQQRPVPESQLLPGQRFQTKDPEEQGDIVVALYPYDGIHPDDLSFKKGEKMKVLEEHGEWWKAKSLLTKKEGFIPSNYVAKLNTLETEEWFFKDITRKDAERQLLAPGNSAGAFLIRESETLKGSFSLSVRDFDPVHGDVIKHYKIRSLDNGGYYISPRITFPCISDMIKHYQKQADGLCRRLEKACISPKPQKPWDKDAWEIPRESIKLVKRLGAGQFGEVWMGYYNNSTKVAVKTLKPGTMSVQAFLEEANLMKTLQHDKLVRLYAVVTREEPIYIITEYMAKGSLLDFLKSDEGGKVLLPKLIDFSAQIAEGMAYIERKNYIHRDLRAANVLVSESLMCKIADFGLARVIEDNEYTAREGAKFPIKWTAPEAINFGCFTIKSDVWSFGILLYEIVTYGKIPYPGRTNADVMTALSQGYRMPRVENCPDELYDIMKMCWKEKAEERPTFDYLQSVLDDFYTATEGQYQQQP

## CC(O)COCC(Cc1ccc(O)cc1)NC(=O)CCc1ccccc1 [E2, (S)2-N(3-O—((R)propan 2-ol)-1-propyl-4-hydroxybenzene)-3-phenylpropylamide]
Lyn A
  modulation of LynA tyrosine kinase activity: inhibited
Lyn B
  modulation of LynB tyrosine kinase activity: inhibited
[1]; 10 mg/kg IP
  difference in tail flick latency times: did not cause any statistically significant difference
  increase of latency time between pretreatment and post treatment: not statistically significant
  reducing pain when compared to the Vehicle: not significantly active in reducing pain
[1]; 10 mg/kg IP (groups 4, 6)
  Δ of latency time post- and pre-treatment: 0.63 ± 0.87 s
  Mean latency time Post-treatment: 8.93 ± 0.93 s
  Mean latency time Pre-treatment: 8.30 ± 0.46 s
[1]; dose of 10 mg/kg
  conclusion: activity in tail flick study: not active
[1]; summary statement, listed as (S,R) enantiomer
  pain analgesic in animal models of pain: ineffective or less effective
BLK
  modulation of BLK tyrosine kinase activity: inhibited

## NCC1(CC(=O)O)CCCCC1 [Gabapentin, reference compound]
[2]; 150 mg/kg IP (group 2), before first administration
  Mean group body weight Day 14: 283.30 ± 2.53 g
[2]; 150 mg/kg IP (group 2), before treatment
  Mean group body weight Day 7: 255.20 ± 2.83 g
[2]; 150 mg/kg IP (group 2), study day -1, before surgery and treatment
  Mean group body weight Baseline: 242.10 ± 2.44 g
[2]; [4]
  Mean group body weight Day 21: 307.90 ± 3.42 g
[3]; 150 mg/kg IP (group 2)
  delta force right minus left leg, Day 14 Post-treatment 5 hours: 48.20 ± 1.85 g
  mean Von Frey force, left operated leg, Day 14 Post-treatment 5 hours: 11.80 ± 1.85 g
[3]; [5]
  delta force right minus left leg, Day 14 Pretreatment: 50.00 ± 0.88 g
  mean Von Frey force, left operated leg, Day 14 Pretreatment: 10.00 ± 0.88 g
[3]; 150 mg/kg IP (group 2), before operation
  difference (delta) force between right healthy leg and left operated leg, Baseline: 0.00 ± 0.00 g
[3]; 150 mg/kg IP (group 2), day -1, before operation
  mean Von Frey force required for withdrawal of the left operated leg, Baseline: 53.20 ± 4.53 g
[3]; [4]
  delta force right minus left leg, Day 21 Post-treatment 5 hours: 47.40 ± 1.85 g
  delta force right minus left leg, Day 21 Post-treatment 24 hours: 46.60 ± 2.29 g
  delta force right minus left leg, Day 21 Post-treatment 48 hours: 50.50 ± 0.69 g
  delta force right minus left leg, Day 21 Pretreatment: 49.80 ± 0.85 g
  mean Von Frey force, left operated leg, Day 21 Post-treatment 5 hours: 12.60 ± 1.85 g
  mean Von Frey force, left operated leg, Day 21 Post-treatment 24 hours: 13.40 ± 2.29 g
  mean Von Frey force, left operated leg, Day 21 Post-treatment 48 hours: 9.50 ± 0.69 g
  mean Von Frey force, left operated leg, Day 21 Pretreatment: 10.20 ± 0.85 g
[3]; 150 mg/kg IP, 2 hours after administration on study days 14 and 21
  conclusion: analgesic activity of the positive control: active
[3]; 150 mg/kg IP, 5 hours, 24 hours and 48 hours post dosing
  conclusion: analgesic activity of the positive control: no longer detected
[3]; 150 mg/kg IP, day 14, 2 hours
  inhibition of allodynia compared to the pretreatment value of delta withdrawal force: inhibited allodynia
[3]; 150 mg/kg IP, day 14, 5 hours
  inhibition of allodynia compared to the pretreatment value of delta withdrawal force: not effective
[3]; 150 mg/kg IP, day 14 and day 21, 2 hours
  pain relief activity, delta withdrawal force between the two legs vs. Vehicle: significant pain relief activity
[3]; 150 mg/kg IP, day 21, 2 hours
  inhibition of allodynia compared to the pretreatment value of delta withdrawal force: effectively inhibited allodynia
[3]; [6]
  inhibition of allodynia (Von Frey) compared to the Vehicle control: inhibited allodynia
  inhibition of allodynia (Von Frey) compared to the pretreatment value: inhibited allodynia
[3]; 150 mg/kg IP, study day 14, 5 hours
  inhibition of allodynia (Von Frey) compared to the Vehicle control: not effective
[3]; 150 mg/kg IP, study day 14, 24 hours
  inhibition of allodynia (Von Frey) compared to the pretreatment value: not effective
[3]; [7]
  inhibition of allodynia (Von Frey) compared to the Vehicle control: effectively inhibited allodynia
  inhibition of allodynia (Von Frey) compared to the pretreatment value: inhibited allodynia
[3]; 150 mg/kg IP, study day 21, 5 hours
  inhibition of allodynia (Von Frey) compared to the Vehicle control: not effective
[3]; summary statement
  duration of analgesic effect post administration: ≤ 5 h

## CN1CC[C@]23c4c5ccc(O)c4O[C@H]2[C@@H](O)C=C[C@H]3[C@H]1C5 [Morphine, reference compound]
[1]; 5 mg/kg IP (group 2)
  Mean latency time Post-treatment: 15.38 ± 1.47 s
  Mean latency time Pre-treatment: 7.92 ± 0.17 s
[1]; 5 mg/kg IP (group 2), listed as morphine
  Mean latency time Pre-treatment: 7.92 ± 0.17 s
